Data on 6 molecules can be found in US20210228713A1, “TLR7 PEPTIDE CONJUGATES” (Apros Therapeutics, Inc., priority 2018, published 2021).

Read-outs that look alike come from different tables or passages of the source. No end group written: not given here.

This test concerns the target T1, human TLR7 (hTLR7) (Homo sapiens, UniProt Q9NYK1).
T1 construct: host or cells: HEK293 (HEK-Blue hTLR7)
T1 sequence (Q9NYK1 27-1049): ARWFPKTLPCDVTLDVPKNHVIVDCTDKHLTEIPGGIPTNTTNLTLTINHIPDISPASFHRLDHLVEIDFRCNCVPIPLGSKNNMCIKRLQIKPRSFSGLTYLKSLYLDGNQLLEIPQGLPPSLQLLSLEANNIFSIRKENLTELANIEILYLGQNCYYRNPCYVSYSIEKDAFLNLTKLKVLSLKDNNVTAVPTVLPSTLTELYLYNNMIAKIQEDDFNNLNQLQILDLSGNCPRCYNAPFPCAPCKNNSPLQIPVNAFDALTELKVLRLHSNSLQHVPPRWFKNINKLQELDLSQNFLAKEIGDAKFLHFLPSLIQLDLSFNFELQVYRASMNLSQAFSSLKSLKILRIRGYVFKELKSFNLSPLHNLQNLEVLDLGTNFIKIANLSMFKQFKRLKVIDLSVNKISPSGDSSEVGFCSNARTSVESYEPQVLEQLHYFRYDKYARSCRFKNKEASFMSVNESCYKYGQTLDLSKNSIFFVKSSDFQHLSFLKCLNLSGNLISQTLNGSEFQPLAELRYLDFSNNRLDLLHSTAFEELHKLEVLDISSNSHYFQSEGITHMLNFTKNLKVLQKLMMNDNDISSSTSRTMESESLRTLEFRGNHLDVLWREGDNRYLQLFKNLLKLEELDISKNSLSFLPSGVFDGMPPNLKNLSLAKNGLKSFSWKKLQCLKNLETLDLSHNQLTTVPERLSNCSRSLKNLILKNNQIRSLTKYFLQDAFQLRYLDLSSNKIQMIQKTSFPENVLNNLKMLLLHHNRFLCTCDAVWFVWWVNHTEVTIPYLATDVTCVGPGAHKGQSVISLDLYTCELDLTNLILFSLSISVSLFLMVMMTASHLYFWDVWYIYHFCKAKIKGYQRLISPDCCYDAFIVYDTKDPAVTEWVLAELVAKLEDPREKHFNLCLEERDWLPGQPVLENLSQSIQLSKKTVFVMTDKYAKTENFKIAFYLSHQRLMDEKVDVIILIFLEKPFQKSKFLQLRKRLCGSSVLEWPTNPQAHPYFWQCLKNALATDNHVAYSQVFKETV
In words: HEK-Blue hTLR7 cell assay (NF-kB/AP-1 driven SEAP reporter). It is filed as cell-based. From the text: HEK-Blue™ TLR7 cells were purchased from Invivogen (San Diego, Calif.). The following description was taken from the product information sheet.
“HEK-Blue™ hTLR7 cells are designed for studying the stimulation of human TLR7 (hTLR7) by monitoring the activation of NF-kB. HEK-Blue™ hTLR7 cells were obtained by co-transfection of the hTLR7 gene and an optimized secreted embryonic alkaline phosphatase (SEAP) reporter gene into HEK293 cells. The SEAP reporter gene is placed under the control of the IFN-b minimal promoter fused to five NF-kB and AP-1-binding sites. Stimulation with a TLR7 ligand activates NF-kB and AP-1 which induce the production of SEAP, which is detected by the HEK-Blue™ Detection cell culture medium.”
A typical assay protocol involved the following steps:
1. Cells were cultured according to the product information sheet.
2. 10 mM compound stock in DMSO were first diluted to 3 mM and then 3-fold serially diluted using DMSO to afford a 10-pt dilution.
3. 3 μl of the diluted DMSO were added to 57 μl HEK-Blue™ Detection media for a further 20-fold dilution.
4. 10 μl of the diluted compound in assay media were added into 40 μl cell culture (in HEK-Blue™ Detection media) in 384-well plate. Final cell concentration=8,000 cells per well.
5. The plates were incubated at 37° C. in 5% CO2 for 16 h. SEAP was determined using a spectrophotometer at 620-655 nm.

The mark [1] stands for this setting: HEK TLR7 activity of unconjugated (naked) peptides, read-out: EC50, Peptide without Compound 1.

For the molecule `CSCC[C@H](NC(=O)CNC(=O)[C@@H](NC(=O)[C@H](CCCNC(=N)N)NC(=O)[C@@H](NC(=O)[C@H](CC(C)C)NC(=O)[C@H](C)NC(=O)[C@H](CCCNC(=N)N)NC(=O)[C@@H](NC(=O)[C@H](CCCNC(=N)N)NC(=O)[C@H](CCC(N)=O)NC(=O)[C@H](Cc1ccc(O)cc1)NC(=O)[C@@H](NC(=O)[C@@H](NC(=O)[C@H](CC(=O)O)NC(=O)[C@H](CC(N)=O)NC(=O)[C@H](CC(C)C)NC(=O)[C@H](CC(N)=O)NC(=O)[C@H](CO)NC(=O)[C@@H](N)Cc1c[nH]cn1)[C@@H](C)O)[C@@H](C)O)[C@@H](C)O)C(C)C)[C@@H](C)O)C(=O)N[C@@H](CC(=O)O)C(=O)N1CCC[C@H]1C(=O)N[C@@H](CCCNC(=N)N)C(=O)N[C@@H](CCSC)C(=O)N[C@@H](CS)C(=O)O` [AP1], the EC50 (in general, the midpoint of the concentration-response curve) was greater than 30 µM.

As for NRFVSIFASGPSQKIQLVNNNGSWH [AP5], under setting [1], the EC50 is greater than 30 µM. Turning to `CCCC[C@@H](CCS(C)(=O)=O)Nc1nc(N)nc(C)c1Cc1cc(CC(=O)N[C@@H](C)C(=O)O)ccc1OC` [Compound 1-alanine conjugate], the EC50 (HEK-Blue hTLR7 cells, 16 h incubation, SEAP read at 620-655 nm, read-out: HEK-TLR7 EC50) is 0.1 µM. Turning to TLTCGFADLMGYIPLVGAPLGGAAR [AP3], the concentration for a half-maximal effect (EC50) under setting [1] was greater than 30 µM. For the molecule DTIWALSVKYGVSVQDIMSWNNLSS [AP7], the EC50 is greater than 10 µM. LLTRILTIPQSLDSWWTSLNFLGGS [AP9]: under setting [1], the EC50 was greater than 30 µM.
